# Data published in patent publication US20260053812A1, “METHODS OF TREATING HYPERTENSION WITH A COMBINATION OF AN ALDOSTERONE SYNTHASE INHIBITOR AND A DIURETIC” (Mineralys Therapeutics, Inc., priority 2022, published 2026).
# Marks after values point to notes of the source that are not given here.
# Tests used:
# [1] = system: subjects with uncontrolled hypertension; test: 24-hour ambulatory blood pressure monitoring (ABPM); assay type: in vivo, human; conditions: for Proportion of subjects with nighttime dip 10-20% in 24-hour systolic ABP / Proportion of subjects with nighttime dip <10% in 24-hour systolic ABP / Proportion of subjects with nighttime dip >20% in 24-hour systolic ABP: Part 1, FAS
# Description: Ambulatory blood pressure monitoring was accomplished with an ambulatory blood pressure monitoring device that consists of a blood pressure cuff worn on a subject's arm attached to a small recording device that is typically attached to the subject's belt or waistband. The ABPM device is worn for 24 hours. Throughout that period, the device records the subject's blood pressure at regular intervals, during the subject's routine daily activities and while they are sleeping. The ABPM thus provides a complete record of the subject's blood pressure over a 24-hour period. 24-hour ABPM was measured in the clinic at baseline and Study Week 7. If, for any reason, the ABPM procedure was deemed a failure at the end of Study Week 7, it may have been repeated at Study Week 8 and therefore no imputation was employed regardless of use of rescue medications. Additionally, ABPM was also collected at the end of Study Week 4 in Part 2. If a repeat test was performed, it supersedes the original test results for that visit. Specific derived variables based on ABPM measurements include mean 24-hour, mean Daytime, and mean Nighttime of SBP, DBP, and heart rate. Change from baseline to Week 7 in 24-hour mean SBP (and DBP) based on ABPM will be analyzed using an ANCOVA with a term for treatment group and a baseline mean 24-hour value as a covariate. The nighttime dip is defined as 100% x(mean daytime SBP−mean nighttime SBP)/mean daytime SBP It is expressed as a percentage and is summarized by treatment group and visit using descriptive statistics. In addition, the number and percentage of subjects with nighttime dip in each of the dipper categories (Bloomfield & Park, 2015) is presented by treatment group and visit. The categories are: • (a) <10% • (b) 10-20% inclusive • (c) >20%
# [2] = Serum potassium; assay type: in vivo, human
# Description: Safety endpoints of this study are: • (a) Incidence and severity of all spontaneously reported adverse events (AEs) • (b) Changes in vital signs (standing SBP, standing DBP, body temperature, heart rate, and respiratory rate) • (c) Changes in electrocardiogram parameters (including cardiac intervals: PR, QRS, QT, and corrected QT interval using Fridericia's formula) • (d) Changes in clinical laboratory assessments (hematology, chemistry, coagulation, and urinalysis) • (e) Change in office-measured SBP from Study Week 8 (end-of-treatment period to end of follow up (i.e. end of Study Week 12 for Part 1 and end of Study 10 for Part 2).
# The Safety Analysis Set includes all enrolled subjects who received at least one dose of study treatment (MLS-101 or placebo). In analyses performed on the Safety Analysis Set, subjects will be analyzed according to their actual treatment received.
smiles,measurement,setting,value
CC(=O)N[C@H]1CC[C@H](NC(=O)CN2CCN(c3nncc(-c4ccc(C)cc4)n3)CC2)CC1 [Compound A HBr],Proportion of subjects with nighttime dip 10-20% in 24-hour systolic ABP,"[1]; 12.5 mg BID, EoT",(31.3) %
same,Proportion of subjects with nighttime dip <10% in 24-hour systolic ABP,"[1]; 12.5 mg BID, EoT",(68.8) %
same,"LSM Δ with Placebo, change from baseline in Nighttime Mean DBP (ABPM, ANCOVA)","[1]; 12.5 mg QD, End of Treatment, Part 1, FAS post-hoc",−1.53 mmHg
same,Proportion of subjects with nighttime dip 10-20% in 24-hour systolic ABP,"[1]; 12.5 mg QD, EoT",(35.7) %
same,Proportion of subjects with nighttime dip <10% in 24-hour systolic ABP,"[1]; 12.5 mg QD, EoT",(64.3) %
same,Proportion of subjects with nighttime dip 10-20% in 24-hour systolic ABP,"[1]; 25 mg BID, EoT",(16.7) %
same,Proportion of subjects with nighttime dip <10% in 24-hour systolic ABP,"[1]; 25 mg BID, EoT",(79.2) %
same,Proportion of subjects with nighttime dip >20% in 24-hour systolic ABP,"[1]; 25 mg BID, EoT",(4.2) %
same,Proportion of subjects with nighttime dip 10-20% in 24-hour systolic ABP,"[1]; 50 mg QD, EoT",(21.4) %
same,Proportion of subjects with nighttime dip <10% in 24-hour systolic ABP,"[1]; 50 mg QD, EoT",(78.6) %
same,Proportion of subjects with nighttime dip 10-20% in 24-hour systolic ABP,"[1]; 100 mg QD, EoT",(45.8) %
same,Proportion of subjects with nighttime dip <10% in 24-hour systolic ABP,"[1]; 100 mg QD, EoT",(45.8) %
same,Proportion of subjects with nighttime dip >20% in 24-hour systolic ABP,"[1]; 100 mg QD, EoT",(8.3) %
same,Subjects with nighttime dip 10-20% in 24-hour systolic ABP,"[1]; 100 mg QD, EoT, Part 2, FAS",9 n
same,Subjects with nighttime dip <10% in 24-hour systolic ABP,"[1]; 100 mg QD, EoT, Part 2, FAS",18 n
same,Subjects with nighttime dip >20% in 24-hour systolic ABP,"[1]; 100 mg QD, EoT, Part 2, FAS",0 n
same,Subjects with nighttime dip 10-20% in 24-hour systolic ABP,"[1]; 100 mg QD, Week 4, Part 2, FAS",6 n
same,Subjects with nighttime dip <10% in 24-hour systolic ABP,"[1]; 100 mg QD, Week 4, Part 2, FAS",18 n
same,Subjects with nighttime dip >20% in 24-hour systolic ABP,"[1]; 100 mg QD, Week 4, Part 2, FAS",1 n
same,Increase in potassium levels relative to baseline,"[2]; 25 mg BID Part 1, Week 8",0.341 mmol/L
same,Serum K+ Mean Change from Baseline to Wk 8,[2]; 50 mg QD (n = 28),+0.25 mmol/L
same,Serum K+ Mean Change from Baseline to Wk 8,[2]; 100 mg QD (n = 61),+0.29 mmol/L
same,Increase in potassium levels relative to baseline,"[2]; 100 mg QD Part 2, Week 8",0.208 mmol/L
same,Number of individuals with verified or multiple increased serum K+ 5.2-5.5 mMol/L during treatment,"[2]; 100 mg QD, Part 1",5
same,Number of individuals with verified or multiple increased serum K+ 5.6-6.0 mMol/L during treatment,"[2]; 100 mg QD, Part 1",3
same,Number of individuals with verified or multiple increased serum K+ 6.1-6.5 mMol/L during treatment,"[2]; 100 mg QD, Part 1",0
same,Percent of individuals with increased serum K+ 5.2-5.5 mMol/L,"[2]; 100 mg QD, Part 1",(18.5%)
same,Percent of individuals with increased serum K+ 5.6-6.0 mMol/L,"[2]; 100 mg QD, Part 1",(10.7%)
same,Number of individuals with increased serum K+ >6.5 mMol/L during treatment,"[2]; 100 mg QD, Part 1, isolated incident not verified by repeat measurement",1*
same,Number of individuals with verified or multiple increased serum K+ 5.2-5.5 mMol/L during treatment,"[2]; 100 mg QD, Part 2",1
same,Number of individuals with verified or multiple increased serum K+ 5.6-6.0 mMol/L during treatment,"[2]; 100 mg QD, Part 2",0
same,Number of individuals with verified or multiple increased serum K+ 6.1-6.5 mMol/L during treatment,"[2]; 100 mg QD, Part 2",0
same,Number of individuals with verified or multiple increased serum K+ >6.5 mMol/L during treatment,"[2]; 100 mg QD, Part 2",0
same,Percent of individuals with increased serum K+ 5.2-5.5 mMol/L,"[2]; 100 mg QD, Part 2",(4%)
same,Number of individuals with verified or multiple increased serum K+ 5.2-5.5 mMol/L during treatment,"[2]; 100 mg QD, Pooled",6
same,Number of individuals with verified or multiple increased serum K+ 5.6-6.0 mMol/L during treatment,"[2]; 100 mg QD, Pooled",3
same,Number of individuals with verified or multiple increased serum K+ 6.1-6.5 mMol/L during treatment,"[2]; 100 mg QD, Pooled",0
same,Number of individuals with verified or multiple increased serum K+ >6.5 mMol/L during treatment,"[2]; 100 mg QD, Pooled",0
same,Percent of individuals with increased serum K+ 5.2-5.5 mMol/L,"[2]; 100 mg QD, Pooled",(10.3%)
same,Percent of individuals with increased serum K+ 5.6-6.0 mMol/L,"[2]; 100 mg QD, Pooled",(5.2%)
same,"Change in group mean serum potassium (K+), Mean","[2]; Part 1, N 26*",+0.50 mMol/L
same,Change in group mean serum potassium (K+),"[2]; Part 1, N 26* (dose not given in Table 5)",+0.50 mMol/L
same,"Change in group mean serum potassium (K+), Mean","[2]; Part 2, N 31",+0.23 mMol/L
same,Change in group mean serum potassium (K+),"[2]; Part 2, N 31 (dose not given in Table 5)",+0.23 mMol/L
same,"Change in group mean serum potassium (K+), Mean","[2]; Pooled, N 57",+0.35 mMol/L
same,Change in group mean serum potassium (K+),"[2]; Pooled, N 57 (dose not given in Table 5)",+0.35 mMol/L
same,Serum potassium levels,"[2]; active treatment cohorts compared with placebo, Parts 1 and 2",increased
same,Episodes of severe hyperkalemia,[2]; pooled (Part 1 and Part 2) 100 mg QD safety set (n=60),no episodes of severe hyperkalemia
same,Subjects with transient elevated serum potassium greater than 6.0 mmol/L,"[2]; whole study, none an SAE, all resolved after discontinuation or dose adjustment, listed as lorundrostat",seven
